The results in this text go back to US20240368157A1, “FORMS AND COMPOSITIONS OF A JAK2 INHIBITOR” (Ajax Therapeutics, Inc., priority 2023, published 2024).

Values after ≈ are worked out from the molar mass of the structure shown.

In general, solubility refers to the dissolved amount per volume that the medium holds. Low values mean little dissolved substance, high ones much dissolved substance. The IC50 is the concentration that inhibits the measured activity by half. A low value points to higher potency.

One data set is described as follows: Kinetic Solubility Assay. It is filed as physicochemical. As to conditions: aqueous buffer, kinetic from dmso stock, PBS, RT, pH of the reported value not stated (method: pH 4.0 and pH 7.4). How it is done: Stock solutions of test compounds are prepared in DMSO at the concentration of 10 mM, and a stock solution of control compound is prepared in DMSO at the concentration of 30 mM. Diclofenac is used as positive control in the assay. 30 μL stock solution of each compound is placed into their a 96-well rack, followed by adding 970 μL of PBS at pH 4.0 and pH 7.4 into each vial of the cap-less solubility sample plate. This study is performed in duplicate. One stir stick is added to each vial and then vials are sealed using a molded PTDE/SIL 96-Well Plate Cover. The solubility sample plate is transferred to the Thermomixer comfort plate shaker and incubated at RT for 2 hours with shaking at 1100 rpm. After 2 hours incubation, stir sticks are removed using a big magnet and all samples from the solubility sample plate are transferred into the filter plate. All the samples are filtered by vacuum manifold. The filtered samples are diluted with methanol. Samples are analyzed by LC-MS/MS and quantified against a standard of known concentration in DMSO using LC coupled with Mass spectral peak identification and quantitation. The solubility values of the test compounds are calculated as follows, wherein INJ VOL is injection volume, DF is dilution factor, and STD is standard: […]

The test system of data set [1] is JAK2-mediated pSTAT5 signaling in constitutively active essential thrombocytopenia cells carrying the V617F mutation. Nature of the data set: SET2-pSTAT5 Cellular Assay. It is filed as cell-based. As to conditions: Homo sapiens, SET-2, 4 hours. The protocol: This assay measures inhibition of JAK2-mediated pSTAT5 signaling in constitutively active essential thrombocytopenia cells carrying the V617F mutation. Cells are harvested from a flask into cell culture medium, and the number of cells is counted. The cells are diluted with culture medium and 100 μL of cell suspension (50000/well) is added into each well of a 96-well cell culture plate. A solution of test compound is added to the assay plate. The plates are covered with a lid and placed in a 37° C. 5% CO2 incubator for 4 hours. After 4 hours, the cells are spun, and the cell pellets are re-suspended with 100 μL cold PBS. Then, the cells are spun again at 4° C. and 4000 rpm for 5 min. PBS is aspirated, and 25 μL lysis buffer (with protease and phosphatase inhibitor cocktail) is added to each cell pellet. The cell lysate is shaken at 4° C. for 20 min to fully lyse the cells. The cell lysate is spun at 4° C. and 4000 rpm for 15 min, and then the supernatant is transferred into a new plate and stored at −80° C. Meso-scale discovery (MSD) is used to analyze plates as follows: a standard MSD plate is coated with capture antibody in PBS (40 μL/well) and is incubated at 4° C. overnight with shaking. […] MSD reading buffer (1×) is added to the plates (150 μL/well), and they are diluted from 4× with water. […]

Turning to `CN(C)C(=O)Nc1cc(Oc2cnc3nc(Nc4cc(C(F)(F)F)cn(C)c4=O)n(C)c3c2C#N)ccn1` [Compound 1, 3-(4-((7-cyano-1-methyl-2-((1-methyl-2-oxo-5-(trifluoromethyl)-1,2-dihydropyridin-3-yl)amino)-1H-imidazo[4,5-b]pyridin-6-yl)oxy)pyridin-2-yl)-1,1-dimethylurea], the solubility at 2 h in the data set “Kinetic Solubility Assay” was 9 to 100 µM (≈ 4.75 to 52.7 µg/mL). Besides, the IC50 in data set [1] was below 125 nM.

As for `CCN1CCN(Cc2ccc(Nc3nc4ccc(Oc5ccnc(NC(C)=O)c5)cc4n3C)cc2C(F)(F)F)CC1` [Compound R-1, reference compound], the solubility at 2 h in the data set “Kinetic Solubility Assay” lay within 100 to 200 µM (≈ 56.8 to 114 µg/mL). This compound also returned an IC50 in data set [1] of 200 to 1000 nM.
